Measurements: patent US4250259A, “Microbiological production of ketones from C3 -C6 secondary alcohols” (priority 1979, dated 1981)
Like-named read-outs stand apart in the source and are kept apart here.

How the values were obtained:
[1] = target: particulate P(40) fraction (Methylococcus capsulatus, UniProt G1UBD1+Q603F1+Q607G3); assay: hydroxylation of n-alkanes to secondary alcohols by particulate P(40) fraction (Table XVII); format: biochemical, Methylococcus capsulatus (Texas, ATCC 19,069)
Sequence of particulate P(40) fraction (Methylococcus capsulatus, UniProt G1UBD1+Q603F1+Q607G3) (Q607G3 whole entry): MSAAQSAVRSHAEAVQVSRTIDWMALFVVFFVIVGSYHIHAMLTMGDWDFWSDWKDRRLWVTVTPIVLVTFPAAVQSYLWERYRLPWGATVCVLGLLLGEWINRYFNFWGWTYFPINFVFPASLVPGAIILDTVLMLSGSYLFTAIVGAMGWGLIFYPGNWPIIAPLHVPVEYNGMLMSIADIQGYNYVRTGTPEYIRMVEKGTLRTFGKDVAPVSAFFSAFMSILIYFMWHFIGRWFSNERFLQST
Sequence of particulate P(40) fraction (Methylococcus capsulatus, UniProt G1UBD1+Q603F1+Q607G3) (G1UBD1 33-414): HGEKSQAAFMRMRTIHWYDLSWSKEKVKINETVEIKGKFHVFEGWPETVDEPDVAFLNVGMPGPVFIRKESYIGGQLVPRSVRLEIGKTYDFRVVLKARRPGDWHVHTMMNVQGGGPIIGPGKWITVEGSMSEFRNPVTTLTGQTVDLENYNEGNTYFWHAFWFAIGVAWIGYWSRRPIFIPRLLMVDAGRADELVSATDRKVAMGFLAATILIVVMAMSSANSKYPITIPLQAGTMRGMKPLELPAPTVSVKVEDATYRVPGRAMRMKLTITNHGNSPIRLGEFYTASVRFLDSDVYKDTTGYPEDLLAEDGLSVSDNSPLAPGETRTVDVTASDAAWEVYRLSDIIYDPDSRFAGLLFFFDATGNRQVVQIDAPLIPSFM
Sequence of particulate P(40) fraction (Methylococcus capsulatus, UniProt G1UBD1+Q603F1+Q607G3) (Q603F1 1-260): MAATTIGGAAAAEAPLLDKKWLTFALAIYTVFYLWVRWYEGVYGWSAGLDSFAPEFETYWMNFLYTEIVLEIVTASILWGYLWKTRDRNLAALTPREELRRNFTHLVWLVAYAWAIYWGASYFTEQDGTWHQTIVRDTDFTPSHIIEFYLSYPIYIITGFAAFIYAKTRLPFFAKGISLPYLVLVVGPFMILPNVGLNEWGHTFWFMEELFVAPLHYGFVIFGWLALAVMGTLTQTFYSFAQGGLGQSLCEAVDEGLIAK
From the text: (§1) Both cell suspensions (particulate fraction) and cell-free particulate fraction of methane-grown methylotroph microorganisms are capable of catalyzing the conversion of C3 -C6 n-alkanes to the corresponding alcohols including secondary alcohols. The conditions for preparing the cell suspensions or the cell-free particulate fractions from methane-grown methylotroph microorganisms is the same as described above. The cell-free particulate fraction requires the presence of oxygen and NADH as an electron donor. […] Tables XVI and XVII show the conversion of C3 -C6 n-alkanes to the corresponding secondary alcohols using cell suspensions and cell-free particulate fractions, respectively, of methane-grown methylotroph microorganisms.
(§2) ^(a) Particulate P(40) fraction was prepared as follows:
(§3) Cellsuspensions at 4° C. were disintegrated through a French
(§4) Pressure cell and centrifuged at 4000 × g. for 15 min. to remove
(§5) unbroken bacteria. The supernatant solution was then centrifuged at 40,00
(§6) × g. for 30 min. at 4° C., yielding the particulate P(40) an
(§7) soluble S(40) fractions. The products were identified by gas
(§8) chromatography and cochromatography with authentic standard.

[2] = tested on: particulate P(40) fraction; assay: as above; format: biochemical, Methylobacterium sp. (CRL-26, NRRL-B-11,222)
From the text: as §1, §2, §3, §4, §5, §6, §7, §8

[3] = tested on: Methylococcus capsulatus CRL M1 NRRL B-11,219; assay: conversion of n-alkanes to oxidation products by cell suspensions (Table XVIII); format: cell-based; settings: methane-grown cell suspension; pH 7.0
Method: (§12) ^(a) Cell-suspensions of methanegrown methylotroph microorganisms
(§13) indicated in 0.15 M phosphate buffer, pH 7.0 incubated in the alkanes as
(§14) indicated at 3° C. The oxidation products were determined by g.l.c

[4] = target: particulate P(40) fraction (Methylosinus trichosporium, UniProt Q50541+Q9KX50+Q9KX51); assay: hydroxylation of n-alkanes to secondary alcohols by particulate P(40) fraction (Table XVII); format: biochemical, Methylosinus trichosporium (OB3b, NRRL-B-11,196)
From the text: as §1, §2, §3, §4, §5, §6, §7, §8
Target sequence in this assay (Q50541 1-252): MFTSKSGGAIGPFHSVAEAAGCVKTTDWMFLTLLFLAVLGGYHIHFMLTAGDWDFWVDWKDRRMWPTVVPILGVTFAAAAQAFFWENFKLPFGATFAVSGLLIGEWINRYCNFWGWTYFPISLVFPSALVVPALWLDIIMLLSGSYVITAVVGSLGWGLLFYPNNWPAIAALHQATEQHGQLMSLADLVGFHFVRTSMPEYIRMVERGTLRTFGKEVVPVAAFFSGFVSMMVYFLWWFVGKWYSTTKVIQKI
Target sequence in this assay (Q9KX50 40-431): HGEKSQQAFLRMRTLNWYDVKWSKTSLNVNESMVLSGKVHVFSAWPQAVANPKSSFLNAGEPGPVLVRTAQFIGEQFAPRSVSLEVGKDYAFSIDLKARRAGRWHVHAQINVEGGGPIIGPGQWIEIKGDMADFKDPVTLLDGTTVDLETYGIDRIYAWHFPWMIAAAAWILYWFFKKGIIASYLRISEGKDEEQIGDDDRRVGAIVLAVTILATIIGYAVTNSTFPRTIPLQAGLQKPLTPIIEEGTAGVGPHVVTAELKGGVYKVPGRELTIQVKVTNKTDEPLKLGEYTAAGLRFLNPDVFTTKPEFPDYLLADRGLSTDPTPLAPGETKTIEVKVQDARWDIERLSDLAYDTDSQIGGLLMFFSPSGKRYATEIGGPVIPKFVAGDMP
Target sequence in this assay (Q9KX51 1-256): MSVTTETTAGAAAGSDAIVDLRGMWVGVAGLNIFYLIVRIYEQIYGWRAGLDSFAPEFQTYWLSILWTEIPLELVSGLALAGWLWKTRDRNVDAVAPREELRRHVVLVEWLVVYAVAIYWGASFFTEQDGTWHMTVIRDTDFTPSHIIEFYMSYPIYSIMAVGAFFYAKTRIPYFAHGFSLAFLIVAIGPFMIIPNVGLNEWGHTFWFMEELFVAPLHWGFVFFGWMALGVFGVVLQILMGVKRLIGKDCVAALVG

[5] = tested on: Methylosinus trichosporium OB3b NRRL B-11,196; assay: conversion of n-alkanes to oxidation products by cell suspensions (Table XVIII); format: cell-based; settings: methane-grown cell suspension; pH 7.0
Method: as §12, §13, §14

[6] = tested on: Methylocystis parvus OBBP (NRRL B-11,198); assay: n-alkanes to methyl ketones by resting cell suspensions (Table I); format: cell-based; settings: cells grown on methane; 30° C.
Method: (§9) The pH of the nutrient medium was adjusted to 7.0 by the addition of acid or base and 50 ml. samples of the nutrient medium were charged into a plurality of 300 ml. shaker flasks. […] The isolates had been maintained on methanol (0.4% V/V) agar plates or on agar plates under an atmosphere of methane and air having a 1:1 V/V gas ratio which had been transferred every two weeks. For growth on methanol, the medium was supplemented with 0.4% methanol. For growth on methane, the gaseous phase of the inoculated flasks was replaced with a gas mixture comprised of methane and air having a ratio of 1:1 on a V/V basis. The inoculated flasks were sealed air-tight and were incubated on a rotary shaker of orbital radius 2.5 cm. at 250 rpm and at 30° C. for two days until turbidity in the medium had developed. The cells were harvested by centrifugation at 10,000×g. at 4° C. for 30 minutes. The cell pellet was washed twice with a 0.05 M phosphate buffer at a pH of 7.0 (containing 0.02 M MgCl2). The washed cells were then suspended in a 0.05 M phosphate buffer at pH 7.0.
(§10) A 0.5 ml. sample of each washed cell suspension (2 mg. cells) was put into 10 ml. vials at 4° C. which were sealed with a rubber cap. The gaseous phase of the vials was removed with vacuum and then was replaced with a gas mixture of the substrate reactant (i.e., alkane or secondary alcohol) and oxygen at a 1:1 V/V ratio. (In the case of a liquid substrate, i.e., secondary alcohol, 10 μl of the substrate was put in the 10 ml. vials). The vials were then incubated at 30° C. on a rotary shaker at 300 rpm. Samples of product (1-3 μl) were withdrawn periodically with a microsyringe and the products were analyzed by gas chromatography (ionization flame detector column).

[7] = tested on: Methylosinus sporium 5 (NRRL B-11,197); assay: as above; format: cell-based; settings: cells grown on methane; 30° C.
Method: as §9, §10

[8] = tested on: Methylosinus trichosporium OB3b (NRRL B-11,196); assay: as above; format: cell-based; settings: cells grown on methane; 30° C.
Method: as §9, §10

[9] = tested on: Methylococcus capsulatus Texas (ATCC 19069); assay: as above; format: cell-based; settings: cells grown on methane; 30° C.
Method: as §9, §10

[10] = tested on: Methylomonas albus BG8 (NRRL B-11,200); assay: as above; format: cell-based; settings: cells grown on methane; 30° C.
Method: as §9, §10

[11] = tested on: Methylomonas methanica SI (NRRL B-11,199); assay: as above; format: cell-based; settings: cells grown on methane; 30° C.
Method: as §9, §10

[12] = tested on: Methylobacterium organophilum XX; assay: as above; format: cell-based; settings: cells grown on methane; 30° C.
Method: as §9, §10

[13] = tested on: Methylobacter capsulatus Y (NRRL B-11,201); assay: as above; format: cell-based; settings: cells grown on methane; 30° C.
Method: as §9, §10

[14] = tested on: Methylococcus capsulatus (Texas, ATCC 19,069); assay: n-alkanes to secondary alcohols by cell suspensions (Table XVI); format: cell-based; settings: Growth Substrate Methane
From the text: as §1
(§11) ^(a) The product secondary alcohols were identified and estimated by […]

[15] = tested on: Methylosinus trichosporium (OB3b, NRRL-B-11,196); assay: as above; format: cell-based; settings: Growth Substrate Methane
From the text: as §1, §11

[16] = tested on: Methylobacter capsulatus (Y, NRRL-B-11,201); assay: as above; format: cell-based; settings: Growth Substrate Methane
From the text: as §1, §11

[17] = tested on: Methylomonas sp. (CRL-17, NRRL-B-11,209); assay: as above; format: cell-based; settings: Growth Substrate Methane
From the text: as §1, §11

[18] = tested on: Methylosinus sp. (CRL-15, NRRL-B-11,202); assay: as above; format: cell-based; settings: Growth Substrate Methane
From the text: as §1, §11

[19] = tested on: Methylobacterium sp. (CRL-26, NRRL-B-11,208); assay: as above; format: cell-based; settings: Growth Substrate Methane
From the text: as §1, §11

[20] = target: particulate P(40) fraction (Methylosinus trichosporium, UniProt Q50541+Q9KX50+Q9KX51); assay: hydroxylation of n-alkanes to secondary alcohols by particulate P(40) fraction (Table XVII); format: biochemical, Methylosinus sp. (CRL-15, NRRL-B-11,202)
From the text: as §1, §2, §3, §4, §5, §6, §7, §8
Target sequence in this assay (Q9KX50 40-431): as the sequence (Q9KX50 40-431) above
Target sequence in this assay (Q50541 1-252): as the sequence (Q50541 1-252) above
Target sequence in this assay (Q9KX51 1-256): as the sequence (Q9KX51 1-256) above

Row | SMILES | Conversion Rate, n-alkane to corresponding secondary alcohol [1] | Conversion Rate, n-alkane to corresponding secondary alcohol [2] | Conversion Rate, n-alkane to corresponding secondary alcohol [4] | Conversion Rates, n-alkane to corresponding methyl ketone [6] [μmoles/hr/mg protein] | Conversion Rates, n-alkane to corresponding methyl ketone [7] [μmoles/hr/mg protein] | Conversion Rates, n-alkane to corresponding methyl ketone [8] [μmoles/hr/mg protein] | Conversion Rates, n-alkane to corresponding methyl ketone [9] [μmoles/hr/mg protein] | Conversion Rates, n-alkane to corresponding methyl ketone [10] [μmoles/hr/mg protein] | Conversion Rates, n-alkane to corresponding methyl ketone [11] [μmoles/hr/mg protein] | Conversion Rates, n-alkane to corresponding methyl ketone [12] [μmoles/hr/mg protein] | Conversion Rates, n-alkane to corresponding methyl ketone [13] [μmoles/hr/mg protein] | Conversion Rate, n-alkane to corresponding secondary alcohol [14] [μmoles/hr/^5 mg. protein] | Conversion Rate, n-alkane to corresponding secondary alcohol [15] [μmoles/hr/^5 mg. protein] | Conversion Rate, n-alkane to corresponding secondary alcohol [16] [μmoles/hr/^5 mg. protein] | Conversion Rate, n-alkane to corresponding secondary alcohol [17] [μmoles/hr/^5 mg. protein] | Conversion Rate, n-alkane to corresponding secondary alcohol [18] [μmoles/hr/^5 mg. protein] | Conversion Rate, n-alkane to corresponding secondary alcohol [19] [μmoles/hr/^5 mg. protein] | Conversion Rate, n-alkane to corresponding secondary alcohol [20] | also measured
1 | CCCC [n-Butane, n-butane] | 0.92 μmoles/hr/2.0mg. of protein | 0.61 μmoles/hr/2.0mg. of protein | 0.79 μmoles/hr/2.0mg. of protein | 1.0 | 0.58 | 1.2 | 0.52 | 0.60 | 0.30 | 2.0 | 1.1 | 1.0 | 1.5 | 0.09 | 1.2 | 1.2 | 0.80 | 0.89 μmoles/hr/2.0mg. of protein | Conversion Rate, product 1-Butanol [3]: 0.4 μmoles/hr./mg./protein; Conversion Rate, product 2-Butanol [3]: 0.5 μmoles/hr./mg./protein; Conversion Rate, product 2-Butanone [3]: 0.2 μmoles/hr./mg./protein; Conversion Rate, product n-butanol [3]: 0.2 μmoles/hr./mg./protein; Conversion Rate, product 1-Butanol [5]: 0.3 μmoles/hr./mg./protein; Conversion Rate, product 2-Butanol [5]: 0.4 μmoles/hr./mg./protein; Conversion Rate, product 2-Butanone [5]: 0.1 μmoles/hr./mg./protein; Conversion Rate, product n-butanol [5]: 0.1 μmoles/hr./mg./protein
2 | CCC [n-Propane, n-propane] | 1.2 μmoles/hr/2.0mg. of protein | 1.0 μmoles/hr/2.0mg. of protein | 1.32 μmoles/hr/2.0mg. of protein | 1.8 | 2.1 | 1.5 | 1.2 | 2.7 | 2.5 | 2.8 | 1.6 | 1.1 | 2.5 | 0.20 | 1.6 | 2.1 | 1.4 | 1.5 μmoles/hr/2.0mg. of protein | Conversion Rate, product 1-Propanol [3]: 0.5 μmoles/hr./mg./protein; Conversion Rate, product 2-Propanol [3]: 0.7 μmoles/hr./mg./protein; Conversion Rate, product Acetone [3]: 0.3 μmoles/hr./mg./protein; Conversion Rate, product Propanol [3]: 0.2 μmoles/hr./mg./protein; Conversion Rate, product 1-Propanol [5]: 0.4 μmoles/hr./mg./protein; Conversion Rate, product 2-Propanol [5]: 0.6 μmoles/hr./mg./protein; Conversion Rate, product Acetone [5]: 0.2 μmoles/hr./mg./protein; Conversion Rate, product Propanol [5]: 0.1 μmoles/hr./mg./protein
